Measured values taken from PubChem BioAssay AID2060492 (Molecular Pharmacology Branch, DTP, NCI, 2025).

Test system: 695427-040-R-J1-PDC complex spheroids, viability percent T/C
Assay: Anticancer human tumor 695427-040-R-J1-PDC patient-derived colon adenocarcinoma cell line growth inhibition [GQUAD]
Settings: for IC50: curve of first compound; for viability, T/C: stronger effect = lower value
Procedure, shortened: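 Multi-cell-type spheroids of tumor cells with HUVEC and mesenchymal stem cells, treated with drug combinations. Concentrations descend in half-log steps from near clinical Cmax, or from 10 microM where Cmax is unknown; viability read-out.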

[1] = second compound 0.0316 µM, first compound 0.0316 µM
[2] = second compound 0.0316 µM, first compound 0.1 µM
[3] = second compound 0.0316 µM, first compound 0.316 µM
[4] = second compound 0.0316 µM, first compound 1 µM
[5] = second compound 0.0316 µM, first compound 3.16 µM
[6] = second compound 0.0316 µM, first compound 10 µM
[7] = second compound 0.1 µM, first compound 0.0316 µM
[8] = second compound 0.1 µM, first compound 0.1 µM
[9] = second compound 0.1 µM, first compound 0.316 µM
[10] = second compound 0.1 µM, first compound 1 µM
[11] = second compound 0.1 µM, first compound 3.16 µM
[12] = second compound 0.1 µM, first compound 10 µM
[13] = second compound 0.316 µM, first compound 0.0316 µM
[14] = second compound 0.316 µM, first compound 0.1 µM
[15] = second compound 0.316 µM, first compound 0.316 µM
[16] = second compound 0.316 µM, first compound 1 µM
[17] = second compound 0.316 µM, first compound 3.16 µM
[18] = second compound 0.316 µM, first compound 10 µM
[19] = second compound 1 µM, first compound 0.0316 µM
[20] = second compound 1 µM, first compound 0.1 µM
[21] = second compound 1 µM, first compound 0.316 µM
[22] = second compound 1 µM, first compound 1 µM
[23] = second compound 1 µM, first compound 3.16 µM
[24] = second compound 1 µM, first compound 10 µM
[25] = second compound 3.16 µM, first compound 0.0316 µM
[26] = second compound 3.16 µM, first compound 0.1 µM
[27] = second compound 3.16 µM, first compound 0.316 µM
[28] = second compound 3.16 µM, first compound 1 µM
[29] = second compound 3.16 µM, first compound 3.16 µM
[30] = second compound 3.16 µM, first compound 10 µM
[31] = second compound 10 µM, first compound 0.0316 µM
[32] = second compound 10 µM, first compound 0.1 µM
[33] = second compound 10 µM, first compound 0.316 µM
[34] = second compound 10 µM, first compound 1 µM
[35] = second compound 10 µM, first compound 3.16 µM
[36] = second compound 10 µM, first compound 10 µM
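Also: spheroids exposed to compounds for seven days before readout.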

**Q.** How did the IC50 (second compound 0.0316 µM) turn out when `COc1cc(C2c3cc4c(cc3C(OC3OC5COC(C)OC5C(O)C3O)C3COC(=O)C23)OCO4)cc(OC)c1O` (stereo unspecified) + Cc1cnc(CNC(=O)c2c(=O)c3ccc(N4CCCN(C)CC4)nc3n3c2sc2ccccc23)cn1 was run?
**A.** > 10000 nM

**Q.** What about the IC50 (second compound 0.1 µM) of the same compound?
**A.** > 10000 nM

**Q.** And the IC50 (second compound 0.316 µM)?
**A.** > 10000 nM

**Q.** What about the IC50 (second compound 1 µM) of the same compound?
**A.** > 10000 nM

**Q.** What about the IC50 (second compound 3.16 µM) of the same compound?
**A.** < 31.6 nM

**Q.** What about the IC50 (second compound 10 µM) of the same compound?
**A.** < 31.6 nM

**Q.** What about the viability, T/C [1] of the same compound?
**A.** 87.3%

**Q.** What about the viability, T/C [2] of the same compound?
**A.** 94.9%

**Q.** And the viability, T/C [3]?
**A.** 92.7%

**Q.** What about the viability, T/C [4] of the same compound?
**A.** 54.4%

**Q.** And the viability, T/C [5]?
**A.** 64.1%

**Q.** What about the viability, T/C [6] of the same compound?
**A.** 60.3%

**Q.** And the viability, T/C [7]?
**A.** 84.8%

**Q.** And the viability, T/C [8]?
**A.** 79.2%

**Q.** And the viability, T/C [9]?
**A.** 70.3%

**Q.** What about the viability, T/C [10] of the same compound?
**A.** 62.9%

**Q.** What about the viability, T/C [11] of the same compound?
**A.** 75.5%

**Q.** And the viability, T/C [12]?
**A.** 65.2%

**Q.** And the viability, T/C [13]?
**A.** 71.3%

**Q.** What about the viability, T/C [14] of the same compound?
**A.** 79.2%

**Q.** And the viability, T/C [15]?
**A.** 70.5%

**Q.** And the viability, T/C [16]?
**A.** 63%

**Q.** And the viability, T/C [17]?
**A.** 73%

**Q.** And the viability, T/C [18]?
**A.** 69.7%

**Q.** What about the viability, T/C [19] of the same compound?
**A.** 47.5%

**Q.** What about the viability, T/C [20] of the same compound?
**A.** 74.7%

**Q.** What about the viability, T/C [21] of the same compound?
**A.** 71.3%

**Q.** What about the viability, T/C [22] of the same compound?
**A.** 59.8%

**Q.** What about the viability, T/C [23] of the same compound?
**A.** 70%

**Q.** What about the viability, T/C [24] of the same compound?
**A.** 55.7%

**Q.** And the viability, T/C [25]?
**A.** 33.4%

**Q.** And the viability, T/C [26]?
**A.** 50.7%

**Q.** What about the viability, T/C [27] of the same compound?
**A.** 46.3%

**Q.** What about the viability, T/C [28] of the same compound?
**A.** 50%

**Q.** What about the viability, T/C [29] of the same compound?
**A.** 50.9%

**Q.** And the viability, T/C [30]?
**A.** 45.7%

**Q.** What about the viability, T/C [31] of the same compound?
**A.** 38.8%

**Q.** And the viability, T/C [32]?
**A.** 34.7%

**Q.** What about the viability, T/C [33] of the same compound?
**A.** 41.8%

**Q.** And the viability, T/C [34]?
**A.** 45.4%

**Q.** And the viability, T/C [35]?
**A.** 56%

**Q.** And the viability, T/C [36]?
**A.** 36.7%

**Q.** What does the source list for `COc1cccc2c1C(=O)c1c(O)c3c(c(O)c1C2=O)CC(O)(C(=O)CO)CC3OC1CC(N)C(O)C(C)O1` (stereo unspecified) + Cc1cnc(CNC(=O)c2c(=O)c3ccc(N4CCCN(C)CC4)nc3n3c2sc2ccccc23)cn1?
**A.** IC50 (second compound 0.0316 µM): 1510 nM; IC50 (second compound 0.1 µM): 1990 nM; IC50 (second compound 0.316 µM): 1920 nM; IC50 (second compound 1 µM): 557 nM; IC50 (second compound 3.16 µM): < 31.6 nM; IC50 (second compound 10 µM): < 31.6 nM; viability, T/C [1]: 96.5%; viability, T/C [2]: 68%; viability, T/C [3]: 70%; viability, T/C [4]: 56.8%; viability, T/C [5]: 38.7%; viability, T/C [6]: 40.4%; viability, T/C [7]: 86.3%; viability, T/C [8]: 70.6%; viability, T/C [9]: 85.3%; viability, T/C [10]: 62.3%; viability, T/C [11]: 45%; viability, T/C [12]: 38.4%; viability, T/C [13]: 72.2%; viability, T/C [14]: 69.8%; viability, T/C [15]: 64.9%; viability, T/C [16]: 60.4%; viability, T/C [17]: 42.4%; viability, T/C [18]: 34.4%; viability, T/C [19]: 60.2%; viability, T/C [20]: 56.8%; viability, T/C [21]: 59.6%; viability, T/C [22]: 41%; viability, T/C [23]: 34.2%; viability, T/C [24]: 24.2%; viability, T/C [25]: 43.8%; viability, T/C [26]: 55.6%; viability, T/C [27]: 48%; viability, T/C [28]: 28.1%; viability, T/C [29]: 28.9%; viability, T/C [30]: 14.9%; viability, T/C [31]: 32.1%; viability, T/C [32]: 45%; viability, T/C [33]: 43.5%; viability, T/C [34]: 26.4%; viability, T/C [35]: 20.2%; viability, T/C [36]: 3.89%

**Q.** With `Nc1ccn(C2OC(CO)C(O)C2(F)F)c(=O)n1` (stereo unspecified) + Cc1cnc(CNC(=O)c2c(=O)c3ccc(N4CCCN(C)CC4)nc3n3c2sc2ccccc23)cn1 as the compound, how does the IC50 (second compound 0.0316 µM) read?
**A.** > 10000 nM

**Q.** What about the IC50 (second compound 0.1 µM) of the same compound?
**A.** > 10000 nM

**Q.** And the IC50 (second compound 0.316 µM)?
**A.** > 10000 nM

**Q.** What about the IC50 (second compound 1 µM) of the same compound?
**A.** > 10000 nM

**Q.** And the IC50 (second compound 3.16 µM)?
**A.** < 31.6 nM

**Q.** And the IC50 (second compound 10 µM)?
**A.** < 31.6 nM

**Q.** And the viability, T/C [1]?
**A.** 91.9%

**Q.** What about the viability, T/C [2] of the same compound?
**A.** 81.2%

**Q.** What about the viability, T/C [3] of the same compound?
**A.** 73.6%

**Q.** What about the viability, T/C [4] of the same compound?
**A.** 49.4%

**Q.** And the viability, T/C [5]?
**A.** 55.1%

**Q.** And the viability, T/C [6]?
**A.** 53.9%

**Q.** And the viability, T/C [7]?
**A.** 93.8%

**Q.** And the viability, T/C [8]?
**A.** 72.5%

**Q.** And the viability, T/C [9]?
**A.** 65.9%

**Q.** And the viability, T/C [10]?
**A.** 52%

**Q.** And the viability, T/C [11]?
**A.** 56.4%

**Q.** And the viability, T/C [12]?
**A.** 61.3%

**Q.** What about the viability, T/C [13] of the same compound?
**A.** 70%

**Q.** What about the viability, T/C [14] of the same compound?
**A.** 66%

**Q.** What about the viability, T/C [15] of the same compound?
**A.** 61.7%

**Q.** And the viability, T/C [16]?
**A.** 64.8%

**Q.** What about the viability, T/C [17] of the same compound?
**A.** 64.2%

**Q.** What about the viability, T/C [18] of the same compound?
**A.** 53.5%

**Q.** What about the viability, T/C [19] of the same compound?
**A.** 60.6%

**Q.** And the viability, T/C [20]?
**A.** 55.2%

**Q.** What about the viability, T/C [21] of the same compound?
**A.** 54.9%

**Q.** What about the viability, T/C [22] of the same compound?
**A.** 52.8%

**Q.** What about the viability, T/C [23] of the same compound?
**A.** 56.4%

**Q.** And the viability, T/C [24]?
**A.** 54.6%

**Q.** What about the viability, T/C [25] of the same compound?
**A.** 42.7%

**Q.** What about the viability, T/C [26] of the same compound?
**A.** 50.9%

**Q.** And the viability, T/C [27]?
**A.** 54.3%

**Q.** What about the viability, T/C [28] of the same compound?
**A.** 47.3%

**Q.** What about the viability, T/C [29] of the same compound?
**A.** 46.4%

**Q.** And the viability, T/C [30]?
**A.** 36%

**Q.** And the viability, T/C [31]?
**A.** 35.1%

**Q.** And the viability, T/C [32]?
**A.** 41.7%

**Q.** And the viability, T/C [33]?
**A.** 40.1%

**Q.** What about the viability, T/C [34] of the same compound?
**A.** 29%

**Q.** And the viability, T/C [35]?
**A.** 36.7%

**Q.** What about the viability, T/C [36] of the same compound?
**A.** 29.8%
